In brackets after ≈: the same amount, converted by molar mass.
Columns and labels:
in vivo = details: rat, po
Experimental: All animals used in this study were adult rats (at least 2.5 months of age).
Male Sprague-Dawley rats having a bodyweight between 250-300 g were randomly assigned to two groups. […] The chemicals were suspended in sesame oil and administrated by single oral gavage at 2 ml/kg. All rats were fasted overnight with free access to water before oral administration of the testing compositions. On the day of dosing, the blood samples were collected at 0 min (prior to dosing), and 0.25, 0.5, 1, 2, 4, 6, 8, and 24 hr post-dosing.
Blood samples were collected from rat jugular veins and transferred into tubes coated with sodium heparin. To obtain plasma, the blood samples were centrifuged at 2,500×g for 15 min at 4° C. and the supernatants were collected and kept frozen in a freezer at −80° C., until they were analyzed.
The plasma concentration of donepezil was determined by LC/MS. The chromatographic separation was carried out on a 5 μm EVO C8 100 Å LC column (100×4.6 mm, Kinetex®). The mobile phase was 0.1% formic acid in water and acetonitrile:methanol=8:2 set as gradient. Flow rate used was 0.3 mL/min. Column temperature was maintained at 40° C. and the injection volume was 30 μL.
The pharmacokinetic parameters were calculated using non-compartmental analysis (NCA) with WinNonlin to assess the systemic exposure of donepezil in rats.

[1] = Water solubility at 25° C.; details: for solubility: water, 25 °C; for water solubility: 25° C.
MK-801 treated mice = assay: Open field test, MK-801 induced hyper-locomotion; details: for Open-field test, anti-hyperactivity effect (formula [formula] not readable) / Open-field test effect (formula [formula] not readable): acute oral; for Open-field test, anti-hyperactivity effect (formula [formula] not readable): mice; for locomotor activity in MK-801 treated mice: MK-801 0.2 mg/kg i.p.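 On all read-outs here: adult male C57BL/6J mice, locomotion counted as total photobeam breaks over 60 minutes in an open field photobeam activity system.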
Experimental: All mice were tested with open field task.
In this study, the mice were placed in a Plexiglas cage (37.5 cm×21.5 cm×18 cm) under 50-65 lux light intensity. Their spontaneous locomotor activities were measured for 60 minutes using the Photobeam Activity System (PAS)-open field (San Diego Instruments, San Diego, Calif., USA). The total number of photo beam breaks of each mouse was measured as an index of locomotor activity.
The schizophrenia-like behavior, MK801-induced hyperactivity, were tested by open field task.
All mice were tested in an open field task.
The schizophrenia-like behavior, NMDA-hypofunction-induced hyperactivity, were tested by open field task.
The amount of paliperidone administered to Groups 3 and 4 was equal. The schizophrenia-like behavior, MK801-induced hyperactivity, were tested by open field task.
The amount of paliperidone administered to Groups 3 and 4 was equal. The schizophrenia-like behavior, NMDA-hypofunction-induced hyperactivity, were tested by open field task.

[2] = mouse, in vivo, ip, 10 mg/kg
Experimental: The testing compounds were administered to mice either through intraperitoneal (i.p.) injection or oral gavage before analyzing blood glucose levels.
For the acute study, two cohorts of mice were used.
For repeated-dose study, mice were randomly assigned into five groups as listed below. • Group 1: Vehicle control • Group 2: Clz (3 mg/kg) • Group 3: Clz:NA 1:1 salt (4.13 mg/kg) • Group 4: Clz (10 mg/kg) • Group 5: Clz:NA 1:1 salt (13.77 mg/kg)
The night before blood glucose levels were measured, the mice were fasted. Blood glucose levels were measured with a portable glucose meter (Contour® Plus, Bayer AG, Leverkusen, Germany) After waiting for 60 min, the treatments indicated above were administered. FIG. 75 illustrates the experimental design of this study.
Two cohorts of mice were used in this study. In cohort 1, mice were randomly assigned into the five groups listed below: • Group 1: Vehicle control • Group 2: NA (3.94 mg/kg) • Group 3: Olz (10 mg/kg) • Group 4: Olz (10 mg/kg)+NA (3.94 mg/kg) • Group 5: Olz:NA 1:1 salt (13.94 mg/kg)
Dosing occurred 60 min prior to measuring blood glucose levels.
In cohort 2, mice were randomly assigned into the five groups listed below: • Group 1: Vehicle control • Group 2: Olz (5 mg/kg) • Group 3: Olz:NA 1:1 salt (6.97 mg/kg) • Group 4: Olz (10 mg/kg) • Group 5: Olz:NA 1:1 salt (13.94 mg/kg)
The night before the glucose tolerance test, the mice fasted. Blood glucose levels were measured in whole blood that was collected from the mouse's tail vein. Glucose levels were measured with a portable glucose meter (Contour® Plus, Bayer AG, Leverkusen, Germany), with the measurement occurring 60 min after the mice were dosed with the treatments indicated above Immediately following the glucose measurement, all mice were subjected to a glucose tolerance test, which involved an intraperitoneal challenge injection of 1 g/kg of glucose, followed by measuring blood glucose levels at 0, 30, 60 and 120 minutes.

mice = assay: von Frey test, paw withdrawal threshold; type: in vivo, C57BL/6J male mice; details: for paw withdrawal threshold compared to vehicle control group / AUC values of von Frey pain threshold compared to vehicle control group / AUC of von Frey pain threshold relative to gabapentin group: mice, single oral dose; for paw withdrawal threshold compared to vehicle control group: gabapentin 20 mg/kg equivalent (salts 192, 106.02, 77.34 mg/kg), 15-180 min; for paw withdrawal threshold compared to vehicle control group / AUC values of von Frey pain threshold compared to vehicle control group: enriched TA 200 mg/kg; for AUC values of von Frey pain threshold compared to vehicle control group: gabapentin 20 mg/kg equivalent; for Pain threshold to time AUC after 120 min: von Frey test, acute oral, 20 mg/kg; for AUC of von Frey pain threshold relative to gabapentin group: same amount of gabapentin (20 mg/kg)
Experimental: The objective of this experiment was to assess the analgesic effects of gabapentin:enriched tannic acid salts in mice. The testing compounds were administrated to mice by oral gavage before von Frey test (a typical assay for pain sensation).
Mice used in this study were randomly assigned into six groups: • Group 1: Vehicle control • Group 2: Enriched TA (200 mg/kg) • Group 3: GBP (20 mg/kg) • Group 4: GBP:enriched TA 1:1 salt (192 mg/kg) • Group 5: GBP:enriched TA 2:1 salt (106.02 mg/kg) • Group 6: GBP:enriched TA 3:1 salt (77.34 mg/kg)
Each mouse in Groups 1-6 received a single, oral dose of 65% PEG400 in ddH2O, enriched tannic acid at 200 mg/kg, gabapentin at 20 mg/kg, gabapentin:enriched tannic acid 1:1 salt (192 mg/kg), gabapentin:enriched tannic acid 2:1 salt (106.02 mg/kg) and gabapentin:enriched tannic acid 3:1 salt (77.34 mg/kg). The amount of gabapentin administered to the mice in Groups 3 to 6 was the same.
Mice were habituated in individual transparent acrylic box on a wire-mesh floor for 30 min before testing. An electronic von Frey apparatus (Bioseb-EVF4S) was used to measure the paw withdrawal thresholds (g) of each mouse before drug administration (baseline) and at 15, 30, 60, 120 and 180 mins after drug administration.

[3] = Carr Index (USP 1174), flowability; type: physicochemical
[4] = GTT, dosage of quetiapine 20 mg/kg
Experimental: For the acute study, mice were randomly assigned into one of the five groups listed below. • Group 1: Vehicle control • Group 2: NA (3.77 mg/kg) • Group 3: Clz (10 mg/kg) • Group 4: Clz (10 mg/kg)+NA (3.77 mg/kg) • Group 5: Clz:NA 1:1 salt (13.77 mg/kg)
For the repeated dose study, two cohorts of mice were used. In cohort 1, mice were randomly assigned into one of the three groups listed below. • Group 1: Vehicle control • Group 2: Clz (10 mg/kg) • Group 3: Clz:NA 1:1 salt (13.77 mg/kg)
In cohort 2, the mice were randomly assigned into one of the three groups listed below. • Group 1: Vehicle control • Group 2: Clz (3 mg/kg) • Group 3: Clz:NA 1:1 salt (4.13 mg/kg)
To assess glucose tolerance, mice were fasted overnight on day 18 (for cohort 1) and on day 35 (for cohort 2), and their blood glucose response to i.p. administration of glucose (2 g/kg) was determined. Blood glucose levels were assessed in the whole blood collected from the tail vein, 60 min after drug administration Immediately following this glucose measurement, all mice were subjected to a glucose tolerance test by receiving an intraperitoneal challenge injection of 2 g/kg of glucose, and blood glucose levels were measured at 0, 30, 60 and 120 minutes.
Mice used in this study were randomly assigned into one of the six following groups: • Group 1: Vehicle control • Group 2: Clz (10 mg/kg) • Group 3: Clz (10 mg/kg)+enriched TA (22.5 mg/kg) • Group 4: Clz (10 mg/kg)+enriched TA (11.3 mg/kg) • Group 5: Clz:enriched TA 2:1 salt (32.5 mg/kg) • Group 6: Clz:enriched TA 4:1 salt (21.3 mg/kg)
One day before the glucose tolerance test, the mice fasted overnight and the blood glucose levels were measured in whole blood collected from the tail vein. Glucose levels were measured using a portable glucose meter (Contour® Plus, Bayer AG, Leverkusen, Germany) 60 min after they were acutely administered with the treatments indicated above Immediately following this glucose measurement, all mice were subjected to a glucose tolerance test by receiving an intraperitoneal challenge injection of 2 g/kg of glucose. Blood glucose levels were measured at 30, 60 and 120 minutes.
Two cohorts of mice were used in this study. […]

[5] = MK801 model, dosage of clozapine 1 mg/kg
[6] = MK801 model, dosage of clozapine 2 mg/kg
[7] = paliperidone 0.06 mg/kg (benzoic acid salt study)
[8] = paliperidone 0.06 mg/kg (nicotinic acid salt study)
[9] = oral paliperidone 0.06 mg/kg or benzoic acid salt 0.076 mg/kg
[10] = oral paliperidone 0.06 mg/kg or nicotinic acid 1:2 salt 0.094 mg/kg
[11] = oral quetiapine 10 mg/kg or nicotinic acid salt […]
[12] = risperidone 10 mg/kg as printed in Table 29
[13] = oral risperidone 0.06 mg/kg or nicotinic acid salt 0.078 mg/kg

**Q.** What does the source list for CN1CCN(C2=Nc3cc(Cl)ccc3Nc3ccccc32)CC1 [clozapine, reference compound]?
**A.** AUC (in vivo; male, Sprague-Dawley, 60 mg/kg): 1320 ng·h/mL; AUC Increased (%) (in vivo; male, Sprague-Dawley, 60 mg/kg): 100%; Tmax (in vivo; male, Sprague-Dawley, 60 mg/kg): 1 h; half-life (in vivo; male, Sprague-Dawley, 60 mg/kg): 5.6 ± 1.7 h; solubility [1]: 0.18 mg/mL (≈ 551 µM); Recovery rate (%) (MK-801 treated mice; MK801-treated mice, dosage of clozapine 1 mg/kg (benzoic acid salt study)): 65.1%; Recovery rate (%) (MK-801 treated mice; [5]): 57%; Recovery rate (%) (MK-801 treated mice; [6]): 79%; Open-field test, anti-hyperactivity effect (formula [formula] not readable) (MK-801 treated mice; clozapine 1 mg/kg): 18.77%

**Q.** With CN1CCN(C2=Nc3cc(Cl)ccc3Nc3ccccc32)CC1.O=C(O)c1cccnc1 [clozapine:nicotinic acid 1:1 salt] as the compound, how does the T1/2 (in vivo) read?
**A.** 3.2 ± 1.4 h

**Q.** What about the Tmax (in vivo) of the same compound?
**A.** 0.8 h

**Q.** And the “AUC Increased (%)” value (in vivo; 60 mg/kg)?
**A.** 161.8%

**Q.** And the “reduction of clozapine-induced hyperglycemia” value [2]?
**A.** 46.8%

**Q.** And the “Recovery rate (%)” value (MK-801 treated mice; [5])?
**A.** 86%

**Q.** What about the “Recovery rate (%)” value (MK-801 treated mice; [6]) of the same compound?
**A.** 100%

**Q.** What does the source list for NCC1(CC(=O)O)CCCCC1 [gabapentin, reference compound]?
**A.** paw withdrawal threshold compared to vehicle control group (mice): no difference from control group at any time point examined; AUC values of von Frey pain threshold compared to vehicle control group (mice): little to no effect; Pain threshold to time AUC after 120 min (mice): 1.28

**Q.** Which “Recovery rate (%)” value (MK-801 treated mice; MK801-treated mice, dosage of olanzapine 0.1 mg/kg) does the source give for Cc1cc2c(s1)Nc1ccccc1N=C2N1CCN(C)CC1 [olanzapine, reference compound] here?
**A.** 36.8%

**Q.** And the “Open-field test effect (formula [formula] not readable)” value (MK-801 treated mice; olanzapine 0.5 mg/kg)?
**A.** 85.8%

**Q.** What about the “Open-field test, anti-hyperactivity effect (formula [formula] not readable)” value (MK-801 treated mice; olanzapine 0.5 mg/kg) of the same compound?
**A.** 30.53%

**Q.** What does the source list for Cc1nc2n(c(=O)c1CCN1CCC(c3noc4cc(F)ccc34)CC1)CCCC2O (stereo not drawn) [paliperidone, reference compound]?
**A.** Carr Index [3]: 29%; solubility [1]: 0.29 mg/mL (≈ 680 µM); Open-field test effect (formula [formula] not readable) (MK-801 treated mice; [7]): 50.3%; Open-field test effect (formula [formula] not readable) (MK-801 treated mice; [8]): 50.3%; locomotor activity in MK-801 treated mice (MK-801 treated mice; [9]): alleviates MK-801 induced hyperactivity; locomotor activity in MK-801 treated mice (MK-801 treated mice; [10]): alleviates MK-801 induced hyperactivity

**Q.** Which results are given for Cc1nc2n(c(=O)c1CCN1CCC(c3noc4cc(F)ccc34)CC1)CCCC2O.O=C(O)c1ccccc1 (stereo not drawn) [paliperidone:benzoic acid 1:1 salt, Paliperidone:Benzoic Acid 1:1 Salt]?
**A.** Carr Index [3]: 13%; water solubility [1]: 10.4 mg/mL; Open-field test effect (formula [formula] not readable) (MK-801 treated mice; [7]): 85.0%; locomotor activity in MK-801 treated mice (MK-801 treated mice; [9]): significant decrease in locomotion activity, compared with paliperidone group

**Q.** With Cc1nc2n(c(=O)c1CCN1CCC(c3noc4cc(F)ccc34)CC1)CCCC2O.O=C(O)c1cccnc1.O=C(O)c1cccnc1 (stereo not drawn) [paliperidone:nicotinic acid 1:2 salt] as the compound, how does the “Carr Index” value [3] read?
**A.** 29%

**Q.** And the water solubility [1]?
**A.** 137.3 mg/mL

**Q.** And the “Open-field test effect (formula [formula] not readable)” value (MK-801 treated mice; [8])?
**A.** 89.7%

**Q.** What about the “locomotor activity in MK-801 treated mice” value (“locomotor activity” for short) (MK-801 treated mice; [10]) of the same compound?
**A.** significant decreases in locomotion activity, compared with paliperidone group

**Q.** What does the source list for OCCOCCN1CCN(C2=Nc3ccccc3Sc3ccccc32)CC1 [quetiapine, reference compound]?
**A.** Open-field test effect (formula [formula] not readable) (MK-801 treated mice; quetiapine 10 mg/kg): 8.7%; locomotor activity in MK-801 treated mice (MK-801 treated mice; [11]): alleviates MK-801 induced hyperactivity

**Q.** For O=C(O)/C=C/C(=O)O.OCCOCCN1CCN(C2=Nc3ccccc3Sc3ccccc32)CC1 [quetiapine:fumaric acid 1:1 salt, reference compound], which “Carr Index” value [3] is on record?
**A.** 33%

**Q.** With O=C(O)c1cccnc1.OCCOCCN1CCN(C2=Nc3ccccc3Sc3ccccc32)CC1 [quetiapine:nicotinic acid 1:1 salt] as the compound, how does the “Carr Index” value [3] read?
**A.** 20%

**Q.** What about the water solubility [1] of the same compound?
**A.** 262 mg/mL

**Q.** And the “Open-field test effect (formula [formula] not readable)” value (MK-801 treated mice; quetiapine 10 mg/kg)?
**A.** 53.1%

**Q.** And the “locomotor activity” value (MK-801 treated mice; [11])?
**A.** significant decrease in locomotion activity, compared with quetiapine group

**Q.** And the “Blood glucose level compared to vehicle after 120 min” value [4]?
**A.** 1.00

**Q.** What does the source list for Cc1nc2n(c(=O)c1CCN1CCC(c3noc4cc(F)ccc34)CC1)CCCC2 [risperidone, reference compound]?
**A.** solubility [1]: < 0.005 mg/mL; Open-field test effect (formula [formula] not readable) (MK-801 treated mice; [12]): 48.7%; locomotor activity in MK-801 treated mice (MK-801 treated mice; [13]): alleviates MK-801 induced hyperactivity

**Q.** Which water solubility [1] does the source give for Cc1nc2n(c(=O)c1CCN1CCC(c3noc4cc(F)ccc34)CC1)CCCC2.O=C(O)c1cccnc1 [risperidone:nicotinic acid 1:1 salt, resperidone:nicotinic acid 1:1 salt] here?
**A.** 2170.77 mg/mL

**Q.** And the “Open-field test effect (formula [formula] not readable)” value (MK-801 treated mice; [12])?
**A.** 80.1%

**Q.** What about the “locomotor activity” value (MK-801 treated mice; [13]) of the same compound?
**A.** higher potency to MK-801-induced hyperactivity

**Q.** With “gabapentin:enriched tannic acid 1:1 salt” as the compound, how does the “paw withdrawal threshold compared to vehicle control group” value (mice) read?
**A.** significantly higher at 60 and 120 min

**Q.** What about the “AUC values of von Frey pain threshold compared to vehicle control group” value (mice) of the same compound?
**A.** significantly higher

**Q.** What about the “AUC of von Frey pain threshold relative to gabapentin group” value (mice) of the same compound?
**A.** about twice as high as in gabapentin group

**Q.** Which “paw withdrawal threshold compared to vehicle control group” value (mice) does the source give for “gabapentin:enriched tannic acid 2:1 salt” here?
**A.** significantly higher at 30 min

**Q.** For “gabapentin:enriched tannic acid 3:1 salt”, which “paw withdrawal threshold compared to vehicle control group” value (mice) is on record?
**A.** significantly higher at 30, 60 and 120 min after administration

**Q.** And the “AUC values of von Frey pain threshold compared to vehicle control group” value (mice)?
**A.** significantly higher

**Q.** And the “AUC of von Frey pain threshold relative to gabapentin group” value (mice)?
**A.** about twice as high as in gabapentin group

**Q.** And the “Pain threshold to time AUC after 120 min” value (mice)?
**A.** 2.80

**Q.** For “olanzapine:enriched tannic acid 2:1 salt”, which “Open-field test, anti-hyperactivity effect (formula [formula] not readable)” value (MK-801 treated mice; olanzapine 0.5 mg/kg) is on record?
**A.** 112.82%

**Q.** Which results are given for olanzapine:pantothenic acid 5:1 salt?
**A.** Open-field test effect (formula [formula] not readable) (MK-801 treated mice; olanzapine 0.5 mg/kg): 101.0%; locomotor activity in MK-801 treated mice (MK-801 treated mice; oral olanzapine 0.5 mg/kg or 5:1 salt 0.547 mg/kg): higher potency to MK-801-induced hyperactivity

Reference: patent US12714711B2, “Salts of neuroceuticals and uses thereof” (priority 2020, dated 2026)
